Assays:
MCF7 [1] = test: Cytotoxicity against MCF-7 breast carcinoma cells at 10 ug/mL; type: functional, cell-based; settings: Homo sapiens
[2] = target: Multidrug resistance-associated protein 1 (Homo sapiens, UniProt P33527); test: The MRP1 antagonism score is the percentage of MCF-7/VP cells surviving in the absence of vincristine to that of in the presence of vincristine.; type: functional
MCF7 [3] = type: functional, Homo sapiens

Multidrug resistance-associated protein 1, sequence (P33527 whole entry): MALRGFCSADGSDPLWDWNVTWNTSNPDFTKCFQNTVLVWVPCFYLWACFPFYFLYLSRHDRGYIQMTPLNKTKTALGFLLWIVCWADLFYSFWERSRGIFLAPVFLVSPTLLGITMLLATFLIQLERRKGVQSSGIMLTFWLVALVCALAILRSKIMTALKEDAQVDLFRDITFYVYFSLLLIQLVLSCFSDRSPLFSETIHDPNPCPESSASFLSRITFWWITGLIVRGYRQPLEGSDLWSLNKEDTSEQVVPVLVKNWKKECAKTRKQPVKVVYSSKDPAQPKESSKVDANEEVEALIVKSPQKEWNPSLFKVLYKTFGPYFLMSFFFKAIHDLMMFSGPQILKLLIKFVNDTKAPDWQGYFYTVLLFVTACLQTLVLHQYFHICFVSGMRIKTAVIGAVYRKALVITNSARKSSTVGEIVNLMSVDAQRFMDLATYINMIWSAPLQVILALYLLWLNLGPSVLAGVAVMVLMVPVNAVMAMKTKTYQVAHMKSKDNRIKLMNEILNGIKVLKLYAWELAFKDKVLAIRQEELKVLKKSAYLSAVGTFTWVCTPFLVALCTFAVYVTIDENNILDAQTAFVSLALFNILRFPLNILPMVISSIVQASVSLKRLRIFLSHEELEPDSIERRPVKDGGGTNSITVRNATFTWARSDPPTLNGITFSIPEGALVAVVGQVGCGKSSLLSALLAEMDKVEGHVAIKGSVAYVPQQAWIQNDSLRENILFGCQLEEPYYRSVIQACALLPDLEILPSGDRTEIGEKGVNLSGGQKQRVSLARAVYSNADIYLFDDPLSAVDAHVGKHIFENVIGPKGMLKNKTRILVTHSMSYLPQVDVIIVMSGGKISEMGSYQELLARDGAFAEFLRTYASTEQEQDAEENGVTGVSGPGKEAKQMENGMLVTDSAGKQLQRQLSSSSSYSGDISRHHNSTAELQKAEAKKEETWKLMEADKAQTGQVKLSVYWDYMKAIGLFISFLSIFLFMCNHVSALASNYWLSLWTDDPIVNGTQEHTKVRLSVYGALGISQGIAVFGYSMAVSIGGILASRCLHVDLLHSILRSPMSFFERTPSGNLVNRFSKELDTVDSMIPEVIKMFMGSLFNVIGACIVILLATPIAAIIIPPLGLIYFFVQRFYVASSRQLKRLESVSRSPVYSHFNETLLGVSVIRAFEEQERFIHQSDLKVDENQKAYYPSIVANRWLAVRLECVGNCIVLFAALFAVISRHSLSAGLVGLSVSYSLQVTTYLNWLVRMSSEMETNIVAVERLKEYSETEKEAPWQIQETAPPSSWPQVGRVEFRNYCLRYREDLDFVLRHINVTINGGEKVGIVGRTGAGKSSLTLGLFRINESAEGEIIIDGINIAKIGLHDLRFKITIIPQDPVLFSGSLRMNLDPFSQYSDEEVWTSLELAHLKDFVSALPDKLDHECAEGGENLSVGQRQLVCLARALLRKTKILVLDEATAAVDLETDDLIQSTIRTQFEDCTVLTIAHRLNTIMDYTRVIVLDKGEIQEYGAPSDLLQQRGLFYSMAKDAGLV

For CCOC(=O)c1ccc(OCc2nc3ccccc3n(C)c2=O)cc1, the IC50 (MCF7 [1]) was over 74 µM and the Ratio [2] was 0.9.
With Nc1ccc(Br)cc1-c1nc2cc3ccccc3cc2nc1O the Ratio [2] was 1.3 and the Toxicity (MCF7 [3]) was 49%.
Cn1c(=O)c(COc2ccccc2)nc2ccccc21 showed an IC50 (MCF7 [1]) of over 94 µM and a Ratio [2] of 1.
For Cn1c(=O)c(COc2cccnc2)nc2ccccc21, the IC50 (MCF7 [1]) was over 56 µM and the Ratio [2] was 1.1.
For Cn1c(=O)c(COc2c(F)c(F)c(F)c(F)c2F)nc2ccccc21, the IC50 (MCF7 [1]) was over 70 µM and the Ratio [2] was 0.8.
With Nc1ccccc1-c1nc2ccccc2nc1O the Ratio [2] was 1.1 and the Toxicity (MCF7 [3]) was 22%.
Cn1c(=O)c(COc2cccc3ccccc23)nc2ccccc21 showed an IC50 (MCF7 [1]) of 20 µM and a Ratio [2] of 0.9.
With Cn1c(=O)c(COc2ccc(C(=O)c3ccccc3)cc2)nc2ccccc21 the IC50 (MCF7 [1]) was over 67 µM and the Ratio [2] was 0.9.
For CN(C)c1cccc(OCc2nc3ccccc3n(C)c2=O)c1, the IC50 (MCF7 [1]) was 57 µM and the Ratio [2] was 0.9.
Cc1nc2ccccc2nc1O was tested, and the IC50 (MCF7 [1]) was over 156 µM and the Ratio [2] was 1.1.
Molecule Nc1ccccc1-c1nc2cc3ccccc3cc2nc1O has a Ratio [2] of 1.3 and a Toxicity (MCF7 [3]) of 37%.
For Cn1c(=O)c(COc2ccccc2C(=O)Nc2ccccc2)nc2ccccc21, the IC50 (MCF7 [1]) was over 32 µM and the Ratio [2] was 1.
Work on Cn1c(=O)c(Cc2ccccc2)nc2ccccc21 yielded an IC50 (MCF7 [1]) of over 100 µM and a Ratio [2] of 1.1.
CNc1ccc(OC)cc1-c1nc2cc3ccccc3cc2nc1O showed a Ratio [2] of 1 and a Toxicity (MCF7 [3]) of 25%.
Cn1c(=O)c(COc2ccccc2Cc2ccccc2)nc2ccccc21 gave an IC50 (MCF7 [1]) of 8.1 µM and a Ratio [2] of 1.1.
CNc1ccc(OC)cc1-c1nc2cc3ccccc3cc2n(C)c1=O was tested, and the Ratio [2] was 2.1 and the Toxicity (MCF7 [3]) was 3%.
With COC(=O)c1ccc(OCc2nc3ccccc3n(C)c2=O)c(OC)c1 the IC50 (MCF7 [1]) was 71 µM and the Ratio [2] was 1.1.
Molecule Cn1c(=O)c(COc2ccc(F)cc2)nc2ccccc21 has an IC50 (MCF7 [1]) of 26 µM and a Ratio [2] of 0.8.
Work on Oc1nc2ccccc2nc1Cc1ccccc1 yielded an IC50 (MCF7 [1]) of over 106 µM and a Ratio [2] of 1.
Work on CNc1ccc(OC)cc1-c1nc2ccccc2n(C)c1=O yielded a Ratio [2] of 3.5 and a Toxicity (MCF7 [3]) of 7%.
Work on Cn1c(=O)c(COc2ccc(C#N)cc2)nc2ccccc21 yielded an IC50 (MCF7 [1]) of over 43 µM and a Ratio [2] of 0.8.
Work on Cc1cc(OCc2nc3ccccc3n(C)c2=O)ccc1[N+](=O)[O-] yielded an IC50 (MCF7 [1]) of over 77 µM and a Ratio [2] of 1.1.
CNc1ccccc1-c1nc2cc([N+](=O)[O-])ccc2n(C)c1=O was tested, and the Ratio [2] was 1.1 and the Toxicity (MCF7 [3]) was 7%.
Cc1nc2ccccc2n(C)c1=O was tested, and the IC50 (MCF7 [1]) was over 144 µM and the Ratio [2] was 0.7.
Molecule Cn1c(=O)c(COc2ccc(-c3ccccc3)cc2)nc2ccccc21 has an IC50 (MCF7 [1]) of 30 µM and a Ratio [2] of 0.7.
Molecule Cn1c(=O)c(COc2cccc(Nc3ccccc3)c2)nc2ccccc21 has an IC50 (MCF7 [1]) of 25 µM and a Ratio [2] of 0.9.
With COc1ccc(CCN(C)CCCC(C#N)(c2ccc(OC)c(OC)c2)C(C)C)cc1OC (stereo not drawn) the IC50 (MCF7 [1]) was over 51 µM.

Reference: ChEMBL document CHEMBL1134347, “Structure-activity studies of substituted quinoxalinones as multiple-drug-resistance antagonists” (J Med Chem, 2001)
